# Active and inactive are the calls of the source. No cut-off for these calls is given here.
# How the values were obtained:
# [1] = Cytotoxicity against MDCK cells after 3 days by CCK-8 assay; assay type: cell-based, Canis lupus familiaris; conditions: dog
# Influenza A virus [2] = assay: Antiviral activity against Influenza A virus A/HK/8/68(H3N2) infected in MDCK cells assessed as inhibition of virus-induced cytopathic effects after 3 days by CCK-8 assay; assay type: functional, organism-based; conditions: 72 h
# Influenza A virus [3] = assay: Antiviral activity against Influenza A virus A/Brisbane/10/2007 (H3N2) infected in MDCK cells assessed as inhibition of virus-induced cytopathic effects after 3 days by CCK-8 assay; assay type: functional, organism-based; conditions: 72 h
# Influenza A virus [4] = assay: Antiviral activity against Influenza A virus A/Weiss/43 (H1N1) infected in MDCK cells assessed as inhibition of virus-induced cytopathic effects after 3 days by CCK-8 assay; assay type: functional, organism-based, Influenza A virus (A/Weiss/1943(H1N1)); conditions: 72 h
# Influenza A virus [5] = assay: Antiviral activity against Influenza A virus A/Mal/302/54 (H1N1) infected in MDCK cells assessed as inhibition of virus-induced cytopathic effects after 3 days by CCK-8 assay; assay type: functional, organism-based; conditions: 72 h
# Influenza A virus [6] = assay: Antiviral activity against Influenza A virus A/WSN/33 (H1N1) infected in MDCK cells assessed as inhibition of nucleoprotein accumulation in nucleus at 10 uM after 4 hrs by fluorescent microscopy; assay type: functional, organism-based; conditions: A/WSN/1933(H1N1)
# Influenza A virus [7] = assay: Antiviral activity against Influenza A virus A/Guangzhou/2009 (H1N1) infected in MDCK cells assessed as inhibition of virus-induced cytopathic effects after 3 days by CCK-8 assay; assay type: functional, organism-based; conditions: 72 h
# Influenza A virus [8] = assay: Antiviral activity against Influenza A virus A/udorn/1972 (H3N2) infected in MDCK cells assessed as inhibition of virus-induced cytopathic effects after 3 days by CCK-8 assay; assay type: functional, organism-based; conditions: 72 h
# Influenza A virus [9] = assay: Antiviral activity against Influenza A virus […] infected in MDCK cells assessed as inhibition of virus-induced cytopathic effects after 3 days by CCK-8 assay; assay type: functional, organism-based; conditions: 72 h
# Influenza A virus [10] = assay: Antiviral activity against Influenza A virus A/Guangdong/96 (H9N2) infected in MDCK cells assessed as inhibition of virus-induced cytopathic effects after 3 days by CCK-8 assay; assay type: functional, organism-based; conditions: 72 h
Compound,CC50 at 72 h [1] [µM],IC50 (Influenza A virus [2]) [µM],also measured
Cc1nnn(-c2ccccc2Cl)c1C(=O)N1CCN(c2ccc([N+](=O)[O-])cc2Cl)CC1,> 100,5.65,
COc1ccccc1-n1nncc1C(=O)N1CCN(c2ccc([N+](=O)[O-])cc2Cl)CC1,> 100,> 50,
Cc1nnn(-c2cccc(Cl)c2)c1C(=O)N1CCN(c2ccc([N+](=O)[O-])cc2Cl)CC1,> 100,9.38,
COc1ccccc1-c1ccccc1C(=O)N1CCN(c2ccc([N+](=O)[O-])cc2Cl)CC1,,3.68,
Cc1nnn(-c2ccccc2OC(C)C)c1C(=O)N1CCN(c2ccc([N+](=O)[O-])cc2Cl)CC1,> 100,16.2,
COc1ccccc1-n1nnc(C)c1C(=O)N1CCN(c2ccc([N+](=O)[O-])cc2)CC1,> 100,> 50,
Cc1nnn(-c2ccc(Cl)cc2)c1C(=O)N1CCN(c2ccc([N+](=O)[O-])cc2Cl)CC1,> 100,> 50,
COc1ccccc1-n1nnc(C)c1C(=O)N1CCN(c2ccc([N+](=O)[O-])cc2Cl)CC1,> 100,1.97,IC50 (Influenza A virus [3]): > 50 µM; IC50 (Influenza A virus [4]): 0.66 µM; IC50 (Influenza A virus [5]): 0.9 µM; inhibition (Influenza A virus [6]): Active; IC50 (Influenza A virus [7]): 0.52 µM; IC50 (Influenza A virus [8]): 1.17 µM; IC50 (Influenza A virus [9]): 1.86 µM; IC50 (Influenza A virus [10]): 4.62 µM
NC12CC3CC(CC(C3)C1)C2 [AMANTADINE],> 100,2.22,
COc1cccc(OC)c1-n1nnc(C)c1C(=O)N1CCN(c2ccc([N+](=O)[O-])cc2Cl)CC1,> 100,2.42,
COc1cc([N+](=O)[O-])ccc1N1CCN(C(=O)c2c(C)nnn2-c2ccccc2OC)CC1,> 100,> 50,
Cc1onc(-c2ccccc2)c1C(=O)N1CCN(c2ccc([N+](=O)[O-])cc2Cl)CC1 [NUCLEOZIN],15.9,1.08,IC50 (Influenza A virus [3]): 12.4 µM; IC50 (Influenza A virus [4]): 0.2 µM; IC50 (Influenza A virus [5]): 0.52 µM; IC50 (Influenza A virus [7]): 0.54 µM; IC50 (Influenza A virus [8]): 0.34 µM; IC50 (Influenza A virus [9]): 1.59 µM; IC50 (Influenza A virus [10]): 3.87 µM
Cc1ccccc1-n1nnc(C)c1C(=O)N1CCN(c2ccc([N+](=O)[O-])cc2Cl)CC1,> 100,4.92,
COc1ccccc1-c1onc(C)c1C(=O)N1CCN(c2ccc([N+](=O)[O-])cc2Cl)CC1,,2.62,
CCc1nnn(-c2ccccc2OC)c1C(=O)N1CCN(c2ccc([N+](=O)[O-])cc2Cl)CC1,> 100,> 50,
COc1cccc(-n2nnc(C)c2C(=O)N2CCN(c3ccc([N+](=O)[O-])cc3Cl)CC2)c1,> 100,13.8,
COc1ccccc1-n1nnc(C)c1C(=O)N1CCN(c2ccccc2)CC1,> 100,> 50,
Cc1[nH]nc(-c2ccccc2Cl)c1C(=O)N1CCN(c2ccc([N+](=O)[O-])cc2Cl)CC1,,2.87,
Cc1[nH]nc(-c2ccccc2)c1C(=O)N1CCN(c2ccc([N+](=O)[O-])cc2Cl)CC1,,8.64,
Cc1noc(-c2ccccc2)c1C(=O)N1CCN(c2ccc([N+](=O)[O-])cc2Cl)CC1,,6,
Cc1nnn(-c2ccccc2O)c1C(=O)N1CCN(c2ccc([N+](=O)[O-])cc2Cl)CC1,> 100,7.84,
O=C(c1ccccc1-c1ccccc1)N1CCN(c2ccc([N+](=O)[O-])cc2Cl)CC1,,7.61,
CCOc1ccccc1-n1nnc(C)c1C(=O)N1CCN(c2ccc([N+](=O)[O-])cc2Cl)CC1,> 100,8.97,
COc1ccccc1-n1nnc(C)c1C(=O)N1CCN(c2ccccc2Cl)CC1,> 100,> 50,
CC(=O)c1ccccc1-n1nnc(C)c1C(=O)N1CCN(c2ccc([N+](=O)[O-])cc2Cl)CC1,> 100,14.8,
COc1ccccc1-n1nnc(C)c1C(=O)N1CCCN(c2ccc([N+](=O)[O-])cc2Cl)CC1,> 100,> 50,
Cc1nnn(-c2ccccc2)c1C(=O)N1CCN(c2ccc([N+](=O)[O-])cc2Cl)CC1,> 100,5.16,
COc1ccc(-n2nnc(C)c2C(=O)N2CCN(c3ccc([N+](=O)[O-])cc3Cl)CC2)cc1,> 100,14.7,
